Data: ChEMBL document CHEMBL3885861, “Open TG-GATES”

Organism: Rattus norvegicus
Assay: Open TG-GATES - Regimen: Daily Repeat
Type: toxicity, organism-based, Sprague-Dawley
Design: regimen Daily Repeat, gender Male, age 6 weeks
Details: in vivo, iv, 20 mg/kg, route intravenous injection, dose level High; for APTT / Bas / Eos / Fbg / Hb / Ht / Lym / MCH / MCHC / MCV / Mono / Neu / PT / Plat / RBC / Ret / WBC: tissue Blood; for KIDNEY_L / KIDNEY_R / KIDNEY_TOTAL: tissue Kidney; for LIVER: tissue Liver; for A/G / ALP / ALT / AST / BUN / CRE / Ca / Cl / DBIL / GLC / IP / K / LDH / Na / PL / RALB / TBIL / TC / TG / TP / gamma-GTP: tissue Plasma

NCCBr [BROMOETHANAMINE]
TERMINAL_BW (72 h, time 3 day): 210.6 g | APTT (72 h, time 3 day): 22.4 s | Bas (72 h, time 3 day): 0% | Eos (72 h, time 3 day): 1% | Fbg (72 h, time 3 day): 351 mg/dL | Hb (72 h, time 3 day): 13.7 g/dL | Ht (72 h, time 3 day): 39.6% | Lym (72 h, time 3 day): 83.4% | MCH (72 h, time 3 day): 21.2 pg | MCHC (72 h, time 3 day): 34.5% | MCV (72 h, time 3 day): 61.3 fL | Mono (72 h, time 3 day): 3% | Neu (72 h, time 3 day): 11% | PT (72 h, time 3 day): 16.3 s | Plat (72 h, time 3 day): 130.9 x10_4/uL | RBC (72 h, time 3 day): 646.2 x10_4/ul | Ret (72 h, time 3 day): 2.4% | WBC (72 h, time 3 day): 69.9 x10_2/uL | KIDNEY_L (72 h, time 3 day): 1 g | KIDNEY_R (72 h, time 3 day): 1 g | KIDNEY_TOTAL (72 h, time 3 day): 2 g | LIVER (72 h, time 3 day): 9.3 g | A/G (72 h, time 3 day): 1.2 | ALP (72 h, time 3 day): 1285.8 IU/L | ALT (72 h, time 3 day): 37 IU/L | AST (72 h, time 3 day): 63.2 IU/L | BUN (72 h, time 3 day): 16 mg/dL | CRE (72 h, time 3 day): 0.2 mg/dL | Ca (72 h, time 3 day): 10.6 mg/dL | Cl (72 h, time 3 day): 109.2 meq/L | DBIL (72 h, time 3 day): 0.004 mg/dL | GLC (72 h, time 3 day): 160 mg/dL | IP (72 h, time 3 day): 5.8 mg/dL | K (72 h, time 3 day): 4.5 meq/L | LDH (72 h, time 3 day): 206.4 IU/L | Na (72 h, time 3 day): 141.6 meq/L | PL (72 h, time 3 day): 140 mg/dL | RALB (72 h, time 3 day): 3 g/dL | TBIL (72 h, time 3 day): 0.014 mg/dL | TC (72 h, time 3 day): 77.8 mg/dL | TG (72 h, time 3 day): 53.4 mg/dL | TP (72 h, time 3 day): 5.6 g/dL | gamma-GTP (72 h, time 3 day): 1.4 IU/L | TERMINAL_BW ([…], time 7 day): 227.1 g | TERMINAL_BW ([…], time 14 day): 262.8 g | TERMINAL_BW ([…], time 28 day): 323 g | APTT ([…], time 7 day): 23 s | Bas ([…], time 7 day): 0% | Eos ([…], time 7 day): 0.8% | Fbg ([…], time 7 day): 332.6 mg/dL | Hb ([…], time 7 day): 14.1 g/dL | Ht ([…], time 7 day): 40.5% | Lym ([…], time 7 day): 86.8% | MCH ([…], time 7 day): 20.9 pg | MCHC ([…], time 7 day): 34.8% | MCV ([…], time 7 day): 59.9 fL | Mono ([…], time 7 day): 2.4% | Neu ([…], time 7 day): 8.6% | PT ([…], time 7 day): 15.9 s | Plat ([…], time 7 day): 140.5 x10_4/uL | RBC ([…], time 7 day): 676 x10_4/ul | Ret ([…], time 7 day): 1.6% | WBC ([…], time 7 day): 87 x10_2/uL | APTT ([…], time 14 day): 24.6 s | Bas ([…], time 14 day): 0% | Eos ([…], time 14 day): 0.2% | Fbg ([…], time 14 day): 332.6 mg/dL | Hb ([…], time 14 day): 14.1 g/dL | Ht ([…], time 14 day): 40.7% | Lym ([…], time 14 day): 87.4% | MCH ([…], time 14 day): 20.1 pg | MCHC ([…], time 14 day): 34.6% | MCV ([…], time 14 day): 58.1 fL | Mono ([…], time 14 day): 2% | Neu ([…], time 14 day): 9.2% | PT ([…], time 14 day): 15.6 s | Plat ([…], time 14 day): 134.2 x10_4/uL | RBC ([…], time 14 day): 700.8 x10_4/ul | Ret ([…], time 14 day): 2.7% | WBC ([…], time 14 day): 76.8 x10_2/uL | APTT ([…], time 28 day): 25.9 s | Bas ([…], time 28 day): 0% | Eos ([…], time 28 day): 1.4% | Fbg ([…], time 28 day): 333.4 mg/dL | Hb ([…], time 28 day): 14.8 g/dL | Ht ([…], time 28 day): 40.7% | Lym ([…], time 28 day): 79% | MCH ([…], time 28 day): 19.9 pg | MCHC ([…], time 28 day): 36.3% | MCV ([…], time 28 day): 54.8 fL | Mono ([…], time 28 day): 3% | Neu ([…], time 28 day): 15.6% | PT ([…], time 28 day): 16.1 s | Plat ([…], time 28 day): 120.7 x10_4/uL | RBC ([…], time 28 day): 744 x10_4/ul | Ret ([…], time 28 day): 3.3% | WBC ([…], time 28 day): 65.8 x10_2/uL | KIDNEY_L ([…], time 7 day): 1.1 g | KIDNEY_R ([…], time 7 day): 1.1 g | KIDNEY_TOTAL ([…], time 7 day): 2.2 g | KIDNEY_L ([…], time 14 day): 1.2 g | KIDNEY_R ([…], time 14 day): 1.2 g | KIDNEY_TOTAL ([…], time 14 day): 2.4 g | KIDNEY_L ([…], time 28 day): 1.4 g | KIDNEY_R ([…], time 28 day): 1.4 g | KIDNEY_TOTAL ([…], time 28 day): 2.8 g | LIVER ([…], time 7 day): 11.1 g | LIVER ([…], time 14 day): 13.6 g | LIVER ([…], time 28 day): 18.5 g | A/G ([…], time 7 day): 1.1 | ALP ([…], time 7 day): 1454.4 IU/L | ALT ([…], time 7 day): 31.6 IU/L | AST ([…], time 7 day): 53.4 IU/L | BUN ([…], time 7 day): 15.6 mg/dL | CRE ([…], time 7 day): 0.2 mg/dL | Ca ([…], time 7 day): 10.7 mg/dL | Cl ([…], time 7 day): 109 meq/L | DBIL ([…], time 7 day): 0 mg/dL | GLC ([…], time 7 day): 174.2 mg/dL | IP ([…], time 7 day): 7 mg/dL | K ([…], time 7 day): 4.3 meq/L | LDH ([…], time 7 day): 176.6 IU/L | Na ([…], time 7 day): 141.2 meq/L | PL ([…], time 7 day): 147.4 mg/dL | RALB ([…], time 7 day): 3 g/dL | TBIL ([…], time 7 day): 0.006 mg/dL | TC ([…], time 7 day): 75.2 mg/dL | TG ([…], time 7 day): 98.6 mg/dL | TP ([…], time 7 day): 5.7 g/dL | gamma-GTP ([…], time 7 day): 1.6 IU/L | A/G ([…], time 14 day): 1.1 | ALP ([…], time 14 day): 1344.2 IU/L | ALT ([…], time 14 day): 34.2 IU/L | AST ([…], time 14 day): 49.4 IU/L | BUN ([…], time 14 day): 19.2 mg/dL | CRE ([…], time 14 day): 0.1 mg/dL | Ca ([…], time 14 day): 10.8 mg/dL | Cl ([…], time 14 day): 110.2 meq/L | DBIL ([…], time 14 day): 0 mg/dL | GLC ([…], time 14 day): 170.4 mg/dL | IP ([…], time 14 day): 6.8 mg/dL | K ([…], time 14 day): 4.3 meq/L | LDH ([…], time 14 day): 135.6 IU/L | Na ([…], time 14 day): 144.4 meq/L | PL ([…], time 14 day): 143 mg/dL | RALB ([…], time 14 day): 3.1 g/dL | TBIL ([…], time 14 day): 0.012 mg/dL | TC ([…], time 14 day): 69.2 mg/dL | TG ([…], time 14 day): 93.6 mg/dL | TP ([…], time 14 day): 6 g/dL | gamma-GTP ([…], time 14 day): 2.6 IU/L | A/G ([…], time 28 day): 1 | ALP ([…], time 28 day): 1076.6 IU/L | ALT ([…], time 28 day): 39 IU/L | AST ([…], time 28 day): 43 IU/L | BUN ([…], time 28 day): 20.2 mg/dL | CRE ([…], time 28 day): 0.1 mg/dL | Ca ([…], time 28 day): 10.7 mg/dL | Cl ([…], time 28 day): 106.2 meq/L | DBIL ([…], time 28 day): 0 mg/dL | GLC ([…], time 28 day): 178 mg/dL | IP ([…], time 28 day): 7 mg/dL | K ([…], time 28 day): 4.2 meq/L | LDH ([…], time 28 day): 118 IU/L | Na ([…], time 28 day): 144.2 meq/L | PL ([…], time 28 day): 170 mg/dL | RALB ([…], time 28 day): 3.4 g/dL | TBIL ([…], time 28 day): 0.042 mg/dL | TC ([…], time 28 day): 77.6 mg/dL | TG ([…], time 28 day): 143.6 mg/dL | TP ([…], time 28 day): 6.6 g/dL | gamma-GTP ([…], time 28 day): 4 IU/L
